Experiments:
ESET/SETDB1 = experiment: Screening with Tet-inducible ESET/SETDB1 cell line (dot blot analysis, FIG. 1); format: cell-based; conditions: among 107 selected library compounds
Method: In order to find compounds that inhibit the ESET/SETDB1 enzyme, 107 compounds expected to inhibit the activity of ESET/SETDB1 were selected through structural modeling from a compound library. These compounds were screened using a Tet-inducible ESET cell line.
Tet-Inducible ESET (H3K9 Specific Histone Methyltransferase) Cell Line (Tetracycline-Inducible ESET Cells):
A Tet-inducible ESET cell line was prepared using the T-REx™ system available from Invitrogen. The myc-ESET gene was subcloned into pcDNA5/TO and transfected into somatic mother cells (STHdh^Q7/7, striatal cells) using pcDNA6/TR.
Confocal Microscopy for Determination of H3K9me3 (Confocal Microscopy for Identification of Change in Heterochromatin Condensation by H3K9Me3 and Drug)
An indirect fluorescence labeling method using fluorescein-conjugated secondary antibodies was used. After fixing ESET inducible cells with 4% PFA and incubating with H3K9me3 (rabbit antibody; dilution, 1:200; Millipore) primary antibodies, the cells were incubated with fluorescence-conjugated secondary antibodies (Alexa 594; dilution, 1:400; Thermo). Images were obtained using a confocal microscope (IX2-DSU, Olympus, Tokyo, Japan).
Among those compounds, #7 compound was a quinolone derivative, which is selected as a hit-compound through the instant experiment. The #7 compound in FIG. 1 is Compound 8 in the present invention.

[1] = tested on: trimethylation of H3K9 (H3K9me3); experiment: Change in H3K9 trimethylation in brain of YAC128 mouse; format: in vivo; conditions: striatal brain tissue of YAC128 mouse, anti-H3K9me3 blot, FIGS. 4A and 4B
Method: After adding the striatal brain tissue of YAC128 mouse to 1 mL of PBS containing 0.4 mM sodium butyrate, 5% Triton X-100, 3 mM DTT, 1 mM sodium orthovanadate, 5 mM sodium fluoride, 3 mM PMSF, 0.5 mg/mL leupeptin and 10 mg/mL aprotinin, a cell homogenate was obtained using a Downce crusher. After centrifugation at 3000 rpm for 10 minutes, the supernatant was removed. The precipitating cell pellet was washed twice with a 5% Triton buffer and histone was extracted with 0.2 M HCl. After neutralizing the histone-containing solution to neutral pH with 1 N NaOH, proteins were quantitated and separated by 15% SDS-PAGE. The change in trimethylation of H3K9 (H3K9me3) was investigated using anti-H3K9me3 (rabbit antibody; dilution, 1:1000; Millipore).

ESET/SETDB1 enzyme = target: T1, ESET/SETDB1 enzyme (Homo sapiens, UniProt Q15047); experiment: SETDB1 chemiluminescence enzyme assay (BPS Bioscience kit); format: biochemical; conditions: test compound 1-100 μM, FIG. 2
T1 construct: purchased BPS Bioscience
Method: In order to investigate the inhibitory effect against the activity of the ESET/SETDB1 enzyme of the compounds according to the present disclosure, SETDB1 chemiluminescence assay was conducted for the compound 8. The SETDB1 assay was performed using the SetDB1 chemiluminescent assay kit (BPS Bioscience) according to the manufacturer's protocol. S-Adenosylmethionine (SAM, stock concentration 20 μM) was used as a […]. First, SAM and the test compounds were prepared to final concentrations of 1 μM, 3 μM, 10 μM, 30 μM and 100 μM by diluting with DMSO (final volume 1 μL). 150 μL of a TBST buffer (1X TBS, pH 8.0, containing 0.05% Tween-20) was added to each well of a 96-well plate and hydrated at room temperature for 15 minutes. A master mix containing an assay buffer, the compound 8 and the SETDB1 enzyme was prepared.
25 μL (7.5 μL 4×HMT buffer+2.5 μL 20 μM SAM+15 μL H2O) of the prepared master mix was added to each well of the plate. Then, 1 μL of the test compound (1 μM, 3 μM, 10 μM, 30 μM or 100 μM) and 20 μL of the diluted SetDB1 enzyme were added sequentially. […] Chemiluminescence resulting from the reaction between the HRP-conjugated secondary antibody and the added HRP substrate was measured using a chemiluminescence reader (Molecular Devices microplate reader) and the result was analyzed using the SoftMax Pro software.

transgenic YAC128 mouse = experiment: Rotarod performance test in YAC128 animal model; format: in vivo; conditions: 15-month-old male YAC128 mice, 0.636 mg/kg for 3 weeks, 5 days a week, 5 rpm, compared to the vehicle, FIG. 3
Method: The effect of the compound according to the present disclosure on motor ability was evaluated using the transgenic YAC128 mouse which expresses the human Huntingtin gene containing 128 CAG repeat sequences as a model of Huntington's disease (HD) (Menalled L et al., 2009, Neurobiol Dis 35(3):319-36). The Huntington's disease model mouse is reported to show decline in motor ability, which is the typical pathological symptom of Huntington's disease, from 6 around months after birth, progress of neurodegeneration from 9 months and aggregation of mutant Huntington's genes in striatal neurons from around 18 months.
Rotarod performance test was conducted using 15-month-old male YAC128 mice. The drug was administered (0.636 mg/kg) for 3 weeks, 5 days a week, and the rotarod test was performed on the 5th day of each week.
The mouse was placed on a rotating rod (4 cm in diameter) and riding time was measured. The experiment was performed 4 times on the same day and 60 seconds was given to each mouse. The rotarod rotation speed was set to 5 rpm. The period of time until the mouse fell to the ground was measured. When the mouse remained longer than 60 seconds on the rod, the riding time was recorded as 60 seconds. The recorded time was statistically analyzed and was used as an indicator of the motor ability and balance of the mouse.

trimethylation of H3K9 (H3K9me3) (ESET/SETDB1 enzyme) | SMILES | inhibitory effect against ESET/SETDB1 (ESET/SETDB1) | intensity of trimethylated H3K9 [1] | riding time on the rod (transgenic YAC128 mouse)
 | C=CCNc1cccc2nc(N3CCCCC3)ccc12 [Compound 4, 2-(piperidin-1-yl)-N-allylquinolin-5-amine] | significant inhibitory effect |  | 
remarkably decreased | C=CCOc1cccc2nc(N3CCCC3)ccc12 [Compound 8, 5-allyloxy-2-(pyrrolidin-1-yl)quinoline] | significant inhibitory effect | remarkably decreased | remarkably increased
 | C=CCOc1cccc2nc(Nc3ccccc3)ccc12 [Compound 11, 5-allyloxy-N-phenylquinolin-2-amine] | significant inhibitory effect |  | 
